Patent publication US12492173B2, “Herbicidal substituted N-tetrazolyl aryl carboxamides” (Bayer Aktiengesellschaft, priority 2019, dated 2025)

Key:
Assay type in all cases: in vivo
Amaranthus retroflexus [1] = assay: Pre-emergence herbicidal action, AMARE; settings: dosage 320 g/ha
How it was run: (§1)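 Seeds were covered with sandy loam soil, then received a pre-emergence surface spray of the WP- or EC-formulated compound. After 3 weeks under good greenhouse growth conditions, damage was scored visually in percent.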

Echinochloa crus-galli [2] = assay: Pre-emergence herbicidal action, ECHCG; settings: dosage 320 g/ha
How it was run: as §1

Stellaria media [3] = assay: Pre-emergence herbicidal action, STEME; settings: dosage 320 g/ha
How it was run: as §1

Veronica persica [4] = assay: Pre-emergence herbicidal action, VERPE; settings: dosage 320 g/ha
How it was run: as §1

Abutilon theophrasti [5] = assay: Post-emergence herbicidal action, ABUTH; parameters: key: % herbicidal action vs untreated; 100 = plants died, 0 = like control; settings: for herbicidal action ABUTH: Dosage 80 g/ha
How it was run: (§2)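 After sowing into sandy loam, plants grew 2 to 3 weeks under greenhouse conditions until one leaf, then got a spray of compound as aqueous suspension or emulsion. Roughly three weeks on, activity was estimated visually against untreated pots.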

Alopecurus myosuroides = assay: Post-emergence herbicidal action, ALOMY; parameters: key: % herbicidal action vs untreated; 100 = plants died, 0 = like control; settings: Dosage 80 g/ha
Protocol: (§3) [table] 2. Post-Emergence Herbicidal Action Against Harmful Plants Seeds of monocotyledonous and dicotyledonous weed and crop plants are laid out in sandy loam soil in wood-fiber pots, covered with soil and cultivated in a greenhouse under good growth conditions. 2 to 3 weeks after sowing, the test plants are treated at the one-leaf stage. The compounds of the invention, formulated in the form of wettable powders (WP) or as emulsion concentrates (EC), are then sprayed onto the green parts of the plants in the form of an aqueous suspension or emulsion at a water application rate equating to 600 to 800 l/ha, with addition of 0.2% wetting agent. After the test plants have been left to stand in the greenhouse under optimal growth conditions for about 3 weeks, the action of the preparations is assessed visually in comparison to untreated controls (herbicidal action in percent (%): 100% activity=the plants have died, 0% activity=like control plants). […] The tables below illustrate, in an exemplary manner, the post-emergence herbicidal action of the compounds according to the invention, the herbicidal activity being stated in percent. In the experiments that follow, herbicidal action of numerous inventive compounds and the known compounds that are structurally closest from D1 (WO 2012/028579 A1) and D2 (WO 2018/202535 A1) were compared under the above-specified conditions by the pre-emergence and post-emergence method. The example numbers given in the tables relate to the compounds disclosed in the respective documents. In addition to the compounds disclosed in D1 and D2, the following compounds V-1 to V-14 that are encompassed by D1 or D2 but are not compounds specified therein were used in the comparative experiments: • V-1: 2-(methylsulfanyl)-3-(methylsulfinyl)-N-(1-methyl-1H-tetrazol-5-yl)-4-(trifluoromethyl)benzamide • V-2: 2-(methylsulfanyl)-3-(methylsulfonyl)-N-(1-methyl-1H-tetrazol-5-yl)-4-(trifluoromethyl)benzamide • V-3: 2,3-bis(ethylsulfanyl)-N-(1-methyl-1H-tetrazol-5-yl)-4-(trifluoromethyl)benzamide • V-4: 2-chloro-3-(ethylsulfanyl)-N-(1-methyl-1H-tetrazol-5-yl)-4-(trifluoromethyl)benzamide • V-5: 2-chloro-4-iodo-3-(methylsulfanyl)-N-(1-methyl-1H-tetrazol-5-yl)benzamide • V-6: 2-chloro-4-iodo-3-(methylsulfinyl)-N-(1-methyl-1H-tetrazol-5-yl)benzamide • V-7: 2-chloro-4-iodo-3-(methylsulfonyl)-N-(1-methyl-1H-tetrazol-5-yl)benzamide • V-8: 2-bromo-3-(methylsulfanyl)-N-(1-methyl-1H-tetrazol-5-yl)-4-(trifluoromethyl)benzamide • V-9: 2-bromo-3-(methylsulfinyl)-N-(1-methyl-1H-tetrazol-5-yl)-4-(trifluoromethyl)benzamide • V-10: 2-bromo-3-(methylsulfonyl)-N-(1-methyl-1H-tetrazol-5-yl)-4-(trifluoromethyl)benzamide • V-11: 2-bromo-3-(ethylsulfanyl)-N-(1-methyl-1H-tetrazol-5-yl)-4-(trifluoromethyl)benzamide • V-12: 2-bromo-3-(ethylsulfinyl)-N-(1-methyl-1H-tetrazol-5-yl)-4-(trifluoromethyl)benzamide • V-13: 2-bromo-3-(ethylsulfonyl)-N-(1-methyl-1-1H-tetrazol-5-yl)-4-(trifluoromethyl)benzamide • V-14: 2-cyclopropyl-3-(ethylsulfanyl)-N-(1-methyl-1H-tetrazol-5-yl)-4-(trifluoromethyl)benzamide Herbicidal Pre-Emergence Action: […]

Amaranthus retroflexus [6] = assay: Post-emergence herbicidal action, AMARE; parameters: key: % herbicidal action vs untreated; 100 = plants died, 0 = like control; settings: for herbicidal action AMARE: Dosage 80 g/ha; for Herbicidal action against AMARE: post-emergence, dosage 80 g/ha
How it was run: as §2

Cyperus esculentus = assay: Post-emergence herbicidal action, CYPES; parameters: key: % herbicidal action vs untreated; 100 = plants died, 0 = like control; settings: Dosage 80 g/ha
Protocol: as §3

Echinochloa crus-galli [7] = assay: Post-emergence herbicidal action, ECHCG; parameters: key: % herbicidal action vs untreated; 100 = plants died, 0 = like control; settings: for herbicidal action ECHCG: Dosage 80 g/ha; for Herbicidal action against ECHCG: post-emergence, dosage 80 g/ha
How it was run: as §2

Matricaria inodora [8] = assay: Post-emergence herbicidal action, MATIN; parameters: key: % herbicidal action vs untreated; 100 = plants died, 0 = like control; settings: for herbicidal action MATIN: Dosage 80 g/ha
How it was run: as §2

Pharbitis purpurea [9] = assay: Post-emergence herbicidal action, PHBPU; settings: for herbicidal action PHBPU: Dosage 80 g/ha; for Herbicidal action against PHBPU: post-emergence, dosage 80 g/ha
How it was run: as §2

Setaria viridis [10] = assay: Post-emergence herbicidal action, SETVI; parameters: key: % herbicidal action vs untreated; 100 = plants died, 0 = like control; settings: Dosage 80 g/ha
How it was run: as §2

Stellaria media [11] = assay: Post-emergence herbicidal action, STEME; parameters: key: % herbicidal action vs untreated; 100 = plants died, 0 = like control; settings: for herbicidal action STEME: Dosage 80 g/ha; for Herbicidal action against STEME: post-emergence, dosage 80 g/ha
How it was run: as §2

Veronica persica [12] = assay: Post-emergence herbicidal action, VERPE; parameters: key: % herbicidal action vs untreated; 100 = plants died, 0 = like control; settings: for herbicidal action VERPE: Dosage 80 g/ha
How it was run: as §2

Viola tricolor [13] = assay: Post-emergence herbicidal action, VIOTR; parameters: key: % herbicidal action vs untreated; 100 = plants died, 0 = like control; settings: for herbicidal action VIOTR: Dosage 80 g/ha; for Herbicidal action against VIOTR: post-emergence, dosage 80 g/ha
How it was run: as §2

Abutilon theophrasti [14] = assay: Pre-emergence herbicidal action, ABUTH; settings: dosage 320 g/ha
How it was run: as §1

Matricaria inodora [15] = assay: Pre-emergence herbicidal action, MATIN; settings: dosage 320 g/ha
How it was run: as §1

Pharbitis purpurea [16] = assay: Pre-emergence herbicidal action, PHBPU; settings: dosage 320 g/ha
Description: (§4) 1. Pre-Emergence Herbicidal Action Against Harmful Plants Seeds of monocotyledonous and dicotyledonous weed plants and crop plants are laid out in sandy loam soil in wood-fiber pots and covered with soil. The compounds of the invention, formulated in the form of wettable powders (WP) or as emulsion concentrates (EC), are then applied to the surface of the covering soil in the form of an aqueous suspension or emulsion at a water application rate equating to 600 to 800 l/ha, with addition of 0.2% wetting agent. After the treatment, the pots are placed in a greenhouse and kept under good growth conditions for the trial plants. The damage to the test plants is scored visually after a test period of 3 weeks by comparison with untreated controls (herbicidal activity in percent (%): 100% activity=the plants have died, 0% activity=like control plants). […] The tables below illustrate, in an exemplary manner, the […] herbicidal action of the compounds according to the invention, the herbicidal activity being stated in percent. [table] In the experiments that follow, herbicidal action of numerous inventive compounds and the known compounds that are structurally closest from D1 (WO 2012/028579 A1) and D2 (WO 2018/202535 A1) were compared under the above-specified conditions by the pre-emergence and post-emergence method. The example numbers given in the tables relate to the compounds disclosed in the respective documents. In addition to the compounds disclosed in D1 and D2, the following compounds V-1 to V-14 that are encompassed by D1 or D2 but are not compounds specified therein were used in the comparative experiments: • V-1: 2-(methylsulfanyl)-3-(methylsulfinyl)-N-(1-methyl-1H-tetrazol-5-yl)-4-(trifluoromethyl)benzamide • V-2: 2-(methylsulfanyl)-3-(methylsulfonyl)-N-(1-methyl-1H-tetrazol-5-yl)-4-(trifluoromethyl)benzamide • V-3: 2,3-bis(ethylsulfanyl)-N-(1-methyl-1H-tetrazol-5-yl)-4-(trifluoromethyl)benzamide • V-4: 2-chloro-3-(ethylsulfanyl)-N-(1-methyl-1H-tetrazol-5-yl)-4-(trifluoromethyl)benzamide • V-5: 2-chloro-4-iodo-3-(methylsulfanyl)-N-(1-methyl-1H-tetrazol-5-yl)benzamide • V-6: 2-chloro-4-iodo-3-(methylsulfinyl)-N-(1-methyl-1H-tetrazol-5-yl)benzamide • V-7: 2-chloro-4-iodo-3-(methylsulfonyl)-N-(1-methyl-1H-tetrazol-5-yl)benzamide • V-8: 2-bromo-3-(methylsulfanyl)-N-(1-methyl-1H-tetrazol-5-yl)-4-(trifluoromethyl)benzamide • V-9: 2-bromo-3-(methylsulfinyl)-N-(1-methyl-1H-tetrazol-5-yl)-4-(trifluoromethyl)benzamide • V-10: 2-bromo-3-(methylsulfonyl)-N-(1-methyl-1H-tetrazol-5-yl)-4-(trifluoromethyl)benzamide • V-11: 2-bromo-3-(ethylsulfanyl)-N-(1-methyl-1H-tetrazol-5-yl)-4-(trifluoromethyl)benzamide • V-12: 2-bromo-3-(ethylsulfinyl)-N-(1-methyl-1H-tetrazol-5-yl)-4-(trifluoromethyl)benzamide • V-13: 2-bromo-3-(ethylsulfonyl)-N-(1-methyl-1-1H-tetrazol-5-yl)-4-(trifluoromethyl)benzamide • V-14: 2-cyclopropyl-3-(ethylsulfanyl)-N-(1-methyl-1H-tetrazol-5-yl)-4-(trifluoromethyl)benzamide Herbicidal Pre-Emergence Action: […]

Viola tricolor [17] = assay: Pre-emergence herbicidal action, VIOTR; settings: dosage 320 g/ha
How it was run: as §1

Polygonum convolvulus = assay: Pre-emergence herbicidal action, POLCO; settings: dosage 320 g/ha, scored visually after 3 weeks vs untreated controls (100% = plants have died)
Description: as §4

Setaria viridis [18] = assay: Pre-emergence herbicidal action, SETVI; settings: dosage 320 g/ha, scored visually after 3 weeks vs untreated controls (100% = plants have died)
Description: as §4

[19] = scored visually after 3 weeks vs untreated controls (100% = plants have died)

SMILES	herbicidal action AMARE (Amaranthus retroflexus [1]) [%]	herbicidal action STEME (Stellaria media [3]) [%]	herbicidal action VERPE (Veronica persica [4]) [%]	herbicidal action ABUTH (Abutilon theophrasti [5])	herbicidal action AMARE (Amaranthus retroflexus [6])	herbicidal action CYPES (Cyperus esculentus)	herbicidal action ECHCG (Echinochloa crus-galli [7])	herbicidal action MATIN (Matricaria inodora [8])	herbicidal action PHBPU (Pharbitis purpurea [9])	herbicidal action SETVI (Setaria viridis [10])	herbicidal action STEME (Stellaria media [11])	herbicidal action VERPE (Veronica persica [12])	herbicidal action VIOTR (Viola tricolor [13])	herbicidal action MATIN (Matricaria inodora [15]) [%]	Herbicidal action against AMARE (Amaranthus retroflexus [6])	Herbicidal action against ECHCG (Echinochloa crus-galli [7])	Herbicidal action against PHBPU (Pharbitis purpurea [9])	Herbicidal action against STEME (Stellaria media [11])	Herbicidal action against VIOTR (Viola tricolor [13])	other results
CCn1nnnc1NC(=O)c1ccc(S(C)(=O)=O)c(CSC)c1C [Example 2-37]	100	90	100	80	90	80	100	80	80	100	100	100	100							herbicidal action ECHCG (Echinochloa crus-galli [2]): 90%; herbicidal action ALOMY (Alopecurus myosuroides): 80
CCCn1nnnc1NC(=O)c1ccc(C(F)(F)F)c(CS(C)(=O)=O)c1S(C)(=O)=O [Example 3-199]	90	80	100											100	80	80	90	80	90	herbicidal action ABUTH (Abutilon theophrasti [14]): 100%; herbicidal action PHBPU (Pharbitis purpurea [16]): 80%; herbicidal action VIOTR (Viola tricolor [17]): 100%; Herbicidal action against ABUTH (Abutilon theophrasti [5]; post-emergence, dosage 80 g/ha): 90; Herbicidal action against MATIN (Matricaria inodora [8]; post-emergence, dosage 80 g/ha): 80; Herbicidal action against VERPE (Veronica persica [12]; post-emergence, dosage 80 g/ha): 100
Cc1c(C(=O)Nc2nnnn2C)ccc(S(C)(=O)=O)c1CS(C)(=O)=O [Example 1-39]	100		90	90	90	80	80	90	80	90	80	90	90	100						
Cn1nnnc1NC(=O)c1ccc(S(C)(=O)=O)c(CS(C)(=O)=O)c1Cl [Example 1-280]															90	90	90	100	90	herbicidal activity ABUTH (Abutilon theophrasti [14]; [19]): 90%; herbicidal activity AMARE (Amaranthus retroflexus [1]; [19]): 100%; herbicidal activity ECHCG (Echinochloa crus-galli [2]; [19]): 100%; herbicidal activity MATIN (Matricaria inodora [15]; [19]): 90%; herbicidal activity PHBPU (Pharbitis purpurea [16]; [19]): 80%; herbicidal activity POLCO (Polygonum convolvulus): 80%; herbicidal activity SETVI (Setaria viridis [18]): 80%; herbicidal activity STEME (Stellaria media [3]; [19]): 90%; herbicidal activity VERPE (Veronica persica [4]; [19]): 100%; herbicidal activity VIOTR (Viola tricolor [17]; [19]): 90%
